Experimental data published in ChEMBL document CHEMBL1130006, “Antimalarial activity of new dihydroartemisinin derivatives. 7. 4-(p-substituted phenyl)-4(R or S)-[10(alpha or beta)-dihydroartemisininoxy]butyric acids” (J Med Chem, 1997).
Converted amounts (≈) assume the structure as drawn.

How the values were obtained:
Plasmodium falciparum [1] = assay: In vitro inhibitory concentration against Plasmodium falciparum W2 Indochina; format: functional, organism-based
Plasmodium falciparum [2] = assay: In vitro inhibitory concentration against Plasmodium falciparum D6 (Sierra Leone); format: functional, organism-based
Mus musculus [3] = species: Mus musculus; assay: Dose that causes 50% suppression of Plasmodium berghei parasitaemia in the treated mice (Mus musculus) compared to untreated controls.; format: functional
Mus musculus [4] = species: Mus musculus; assay: Dose that causes 90% suppression of Plasmodium berghei parasitaemia in the treated mice (Mus musculus) compared to untreated controls.; format: functional
Mus musculus [5] = assay: T/C is life span of treated mice/control at a compound dose of 16 (mg/kg); format: functional
Mus musculus [6] = assay: T/C is life span of treated mice/control at a compound dose of 4 (mg/kg); format: functional
Mus musculus [7] = assay: T/C is life span of treated mice/control at a compound dose of 64 (mg/kg); format: functional
Mus musculus [8] = assay: T/C is life span of treated mice/control at a compound dose of 16,(mg/kg); format: functional

Compound	IC50 (Plasmodium falciparum [1]) [ng/mL]	IC50 (Plasmodium falciparum [2]) [ng/mL]	SD50 (Mus musculus [3]) [mg/kg]	SD90 (Mus musculus [4]) [mg/kg]	T/C (Mus musculus [5]) [days]	T/C (Mus musculus [6]) [days]	T/C (Mus musculus [7]) [days]	T/C (Mus musculus [8]) [days]
COC(=O)CC[C@@H](O[C@@H]1O[C@@H]2O[C@@]3(C)CC[C@H]4[C@H](C)CCC([C@H]1C)[C@@]24OO3)c1ccc(Cl)cc1 (stereo not given in full)	0.629 (≈ 1.27 nM)	0.728 (≈ 1.47 nM)						
COC(=O)CCC(O[C@@H]1O[C@@H]2OC3(C)CC[C@H]4[C@H](C)CCC([C@H]1C)C24OO3)c1ccc(OC)cc1 (stereo not given in full)	0.647 (≈ 1.32 nM)	0.827 (≈ 1.68 nM)						
C[C@@H]1CCC2[C@@H](C)[C@@H](OC(CCC(=O)O)c3ccc(Br)cc3)O[C@@H]3OC4(C)CC[C@@H]1C23OO4 (stereo not given in full)	0.419 (≈ 0.797 nM)	1.36 (≈ 2.59 nM)						
COc1ccc(C(CCC(=O)O)O[C@@H]2O[C@@H]3OC4(C)CC[C@H]5[C@H](C)CCC([C@H]2C)C35OO4)cc1 (stereo not given in full)	3.45 (≈ 7.24 nM)	3.82 (≈ 8.01 nM)	25.06	54.99	2.5	1.7	4	
C[C@@H]1CCC2[C@@H](C)[C@H](OC(CCC(=O)O)c3ccc(F)cc3)O[C@@H]3OC4(C)CC[C@@H]1C23OO4 (stereo not given in full)	1.34 (≈ 2.88 nM)	2.21 (≈ 4.76 nM)	28.16	58.07	2.8	1.5	3.3	
COC(=O)CCC(O[C@H]1O[C@@H]2OC3(C)CC[C@H]4[C@H](C)CCC([C@H]1C)C24OO3)c1ccc(Br)cc1 (stereo not given in full)	0.62 (≈ 1.15 nM)	1.01 (≈ 1.87 nM)						
COC(=O)CC[C@@H](O[C@H]1O[C@@H]2O[C@@]3(C)CC[C@H]4[C@H](C)CCC([C@H]1C)[C@@]24OO3)c1ccc(Cl)cc1 (stereo not given in full)	0.656 (≈ 1.33 nM)	0.391 (≈ 0.79 nM)						
C[C@@H]1CC[C@H]2[C@@H](C)C(=O)O[C@@H]3O[C@@]4(C)CC[C@@H]1[C@]32OO4 [ARTEMISININ]	2.14 (≈ 7.57 nM)	3.91 (≈ 13.9 nM)						
COC(=O)CCC(O[C@H]1O[C@@H]2OC3(C)CC[C@H]4[C@H](C)CCC([C@H]1C)C24OO3)c1ccc(Cl)cc1 (stereo not given in full)	0.794 (≈ 1.6 nM)	0.903 (≈ 1.82 nM)						
C[C@@H]1CCC2[C@@H](C)[C@@H](OC(CCC(=O)O)c3ccc(Cl)cc3)O[C@@H]3OC4(C)CC[C@@H]1C23OO4 (stereo not given in full)	1.26 (≈ 2.62 nM)	2.4 (≈ 5 nM)						
C[C@@H]1CCC2[C@@H](C)[C@H](OC(CCC(=O)O)c3ccc(Cl)cc3)O[C@@H]3OC4(C)CC[C@@H]1C23OO4 (stereo not given in full)	0.357 (≈ 0.742 nM)	0.38 (≈ 0.79 nM)	14.39	45.04		2.3	4.8	3.8
C[C@H]1C(Oc2ccc(C(=O)[O-])cc2)O[C@@H]2O[C@]3(C)CC[C@H]4[C@H](C)CCC1C24OO3.[Na+] (stereo not given in full)			56		2.7		4.3	
C[C@@H]1CCC2[C@@H](C)[C@@H](OC(CCC(=O)O)c3ccc(F)cc3)O[C@@H]3OC4(C)CC[C@@H]1C23OO4 (stereo not given in full)	0.828 (≈ 1.78 nM)	2.33 (≈ 5.02 nM)						
COC(=O)CCC(O[C@@H]1O[C@@H]2OC3(C)CC[C@H]4[C@H](C)CCC([C@H]1C)C24OO3)c1ccc(F)cc1 (stereo not given in full)	0.398 (≈ 0.832 nM)	0.43 (≈ 0.9 nM)						
C[C@@H]1CCC2[C@@H](C)[C@H](OC(CCC(=O)O)c3ccc(Br)cc3)O[C@@H]3OC4(C)CC[C@@H]1C23OO4 (stereo not given in full)	0.313 (≈ 0.596 nM)	0.405 (≈ 0.771 nM)	16.26	48.18	3.5	2.7	5.8	
COC(=O)CCC(O[C@H]1O[C@@H]2OC3(C)CC[C@H]4[C@H](C)CCC([C@H]1C)C24OO3)c1ccc(F)cc1 (stereo not given in full)	0.488 (≈ 1.02 nM)	0.616 (≈ 1.29 nM)						
COC(=O)CCC(O[C@@H]1O[C@@H]2OC3(C)CC[C@H]4[C@H](C)CCC([C@H]1C)C24OO3)c1ccc(Br)cc1 (stereo not given in full)	0.543 (≈ 1.01 nM)	0.673 (≈ 1.25 nM)						
